# Laboratory results as given in patent US5288723A, “A composition and a method of using veratridine and epinephrine as a local anesthetic” (priority 1991, dated 1994).
# “Also recorded” adds a separate entry of the source.
# What was measured:
# [1] = tested on: B-fibers of rabbit vagus nerve; test: Sucrose-gap recording in the veratrinized region, B-fibers; parameters: species or system New Zealand white rabbit; settings: 0.5 μm VTD
# Description: Adult male New Zealand white rabbits (3±0.5 kg) were pretreated intramuscularly with a mixture of ketamine (200 mg), xylazine (20 mg) and atropine (0.4 mg) for sedation. Ten minutes after this treatment, the animals were anesthetized with diethyl ether. After cessation of respiration, a longitudinal skin incision was made, and the cervical portion of both vagus nerves was dissected. The vagus nerves were temporarily stored at room temperature (22° C.) in a beaker containing modified HEPES Liley (HL) solution stirred constantly by aeration with a mixture of 95% oxygen and 5% carbon dioxide. […]
# VTD free base (no. V-5754, lot 58F-7828, Sigma, St. Louis, Mo.) was stored in a desiccator below 0° C. and was used to prepare a 2 mM stock solution in dimethyl sulfoxide [DMSO], Fisher Scientific, lot 861316), which also was stored at below 0° C. […] The maximum equivalent content of DMSO is 0.5%, and in three control experiments we detected no change in electrophysiologic behavior with 1% DMSO.
# Nerves were desheathed and mounted in an acrylic sucrose-gap chamber (FIG. 2C). […] In contrast to the extracellular chamber described above, which measured APc in a drug-free segment after they had propagated through a VTD solution, the sucrose gap measured the behavior of the nerve membrane directly exposed to drug, the "veratrinized" nerve. […]
# rat sciatic nerve = test: Motor block of rat sciatic nerve in vivo (toe curling and/or foot dragging); parameters: species or system Male Sprague-Dawley rats; settings: for duration, MOTOR / onset, MOTOR: mean ± SEM
# Description: Male Sprague-Dawley rats (200-250 g) were divided into 4 groups of 10 each. 0.1 ml of VTD alone at 0.2, 0.5 or 0.7 mM or vehicle (saline) was injected at the depression between the femoral head and the hip. The same animals were injected with VTD with epinephrine (EPI, 1:200,000) one week later, using the previously uninjected leg. Motor and sensory functions were rated by the respective monitoring of toe curling and/or foot dragging, and by testing the nocifensive withdrawal reflex to pinch of the foot pad of the injected hindlimb. Saline alone affected neither function.
smiles,measurement,setting,value
"COc1ccc(C(=O)OC2CCC3(C)C4CCC5C6(O)CC(O)C7(O)C(CN8CC(C)CCC8C7(C)O)C6(O)CC53OC24O)cc1OC (stereo not drawn) [VTD, veratridine]",B-fiber elevation after addition of VTD,[1],unchanged
same,Onset of motor block (summary),"rat sciatic nerve; VTD alone, 0.2-0.7 mM",6 to 12 min
same,"duration, MOTOR","rat sciatic nerve; [VTD] 0.2 mM, 0.1 ml",124 ± 19 min
same,"fraction block, MOTOR","rat sciatic nerve; [VTD] 0.5 mM, 0.1 ml",10/10
same,"duration, MOTOR","rat sciatic nerve; [VTD] 0.5 mM, 0.1 ml",211 ± 31 min
same,"onset, MOTOR","rat sciatic nerve; [VTD] 0.5 mM, 0.1 ml",10 ± 3 min
same,"duration, MOTOR","rat sciatic nerve; [VTD] 0.7 mM, 0.1 ml",285 ± 39 min
same,"onset, MOTOR","rat sciatic nerve; [VTD] 0.7 mM, 0.1 ml",6 ± 2 min
same,Motor function inhibition compared with bupivacaine and lidocaine,rat sciatic nerve; rat sciatic nerve,more potent and longer acting inhibitor of motor function than either bupivacaine or lidocaine; also recorded: more potent and longer-acting inhibitor of motor function than either bupivacaine or lidocaine
